Laboratory results from publication PMC6151383 (Molecules : A Journal of Synthetic Chemistry and Natural …, 2017).
Converted amounts (≈) assume the structure as drawn. Where two headings read alike, the source gives them in different places.

Tests used:
[1] = tested on: Trichophyton interdigitale 445; assay: Antifungal microdilution broth MIC, T. interdigitale; assay type: cell-based
[2] = tested on: Aspergillus fumigatus 231; assay: Antifungal microdilution broth MIC, A. fumigatus; assay type: cell-based; settings: Aspergillus fumigatus, 231; 48 h incubation; read-out: MIC AF 48 h
[3] = tested on: ESBL-positive Klebsiella pneumoniae J 14368/08
[4] = tested on: Klebsiella pneumoniae D 11750/08
[5] = tested on: Mycobacterium kansasii 235/80; assay: In vitro antimycobacterial MIC, M. kansasii 235/80; assay type: cell-based
[6] = tested on: Trichosporon asahii 1188; assay: Antifungal microdilution broth MIC, T. asahii; assay type: cell-based
[7] = tested on: yeasts (Candida sp., T. asahii); assay: Antifungal activity against yeasts; assay type: cell-based; settings: read-out: MIC for yeasts
[8] = tested on: Candida glabrata 20/I; assay: Antifungal microdilution broth MIC, C. glabrata; assay type: cell-based; settings: Nakaseomyces glabratus, 48 h incubation, read-out: MIC CG 48 h
[9] = tested on: Mycobacterium avium 330/88; assay: In vitro antimycobacterial MIC, M. avium; assay type: cell-based
[10] = tested on: Escherichia coli CCM 4517; assay: Antibacterial microdilution broth MIC, E. coli; assay type: cell-based; settings: 48 h incubation, read-out: MIC EC 48 h
[11] = tested on: Staphylococcus epidermidis H 6966/08; assay: Antibacterial microdilution broth MIC, S. epidermidis; assay type: cell-based
[12] = tested on: Mycobacterium tuberculosis 331/88 (H37Rv); assay: In vitro antimycobacterial MIC, M. tuberculosis; assay type: cell-based
[13] = tested on: M. kansasii 6509/96; assay: In vitro antimycobacterial MIC, M. kansasii clinical isolate; assay type: cell-based; settings: Mycobacterium kansasii
[14] = tested on: Candida tropicalis 156; assay: Antifungal microdilution broth MIC, C. tropicalis; assay type: cell-based
[15] = tested on: Candida krusei E28; assay: Antifungal microdilution broth MIC, C. krusei; assay type: cell-based; settings: Pichia kudriavzevii
[16] = tested on: Lichtheimia corymbifera 272; assay: Antifungal microdilution broth MIC, L. corymbifera; assay type: cell-based; settings: Lichtheimia corymbifera, 272; 48 h incubation; read-out: MIC LC 48 h
[17] = tested on: Staphylococcus aureus CCM 4516/08; assay: Antibacterial microdilution broth MIC, S. aureus; assay type: cell-based
[18] = tested on: Candida albicans ATCC 44859; assay: Antifungal microdilution broth MIC, C. albicans; assay type: cell-based; settings: ATCC44859, 48 h incubation, read-out: MIC CA 48 h
[19] = tested on: Pseudomonas aeruginosa CCM 1961; assay: Antibacterial microdilution broth MIC, P. aeruginosa; assay type: cell-based; settings: 48 h incubation, read-out: MIC PA 48 h
[20] = tested on: Enterococcus faecalis J 14365/08; assay: Antibacterial microdilution broth MIC, E. faecalis; assay type: cell-based; settings: 48 h incubation, read-out: MIC EF 48 h
[21] = tested on: M. tuberculosis and NTM; assay: Antimycobacterial activity, panel; assay type: cell-based; settings: Mycobacterium tuberculosis; range over all four mycobacterial strains and incubation times; read-out: MIC, M. tuberculosis and NTM
[22] = tested on: Klebsiella pneumoniae D 11750/08; assay: Antibacterial microdilution broth MIC, K. pneumoniae; settings: 48 h incubation
[23] = 235/80, 168 h, 7 d incubation, read-out: MIC M. kansasii 235/80 7 d
[24] = 235/80, 336 h, 14 d incubation, read-out: MIC M. kansasii 235/80 14 d
[25] = 235/80, 504 h, 21 d incubation, read-out: MIC M. kansasii 235/80 21 d
[26] = 330/88, 336 h, 14 d incubation, read-out: MIC M. avium 330/88 14 d
[27] = 330/88, 504 h, 21 d incubation, read-out: MIC M. avium 330/88 21 d
[28] = Staphylococcus epidermidis, H6966/08, 48 h incubation, read-out: MIC SE 48 h
[29] = 336 h, 14 d incubation, read-out: MIC Mtb. 331/88 14 d
[30] = 504 h, 21 d incubation, read-out: MIC Mtb. 331/88 21 d
[31] = 6509/96, 168 h, 7 d incubation, read-out: MIC M. kansasii 6509/96 7 d
[32] = 6509/96, 336 h, 14 d incubation, read-out: MIC M. kansasii 6509/96 14 d
[33] = 6509/96, 504 h, 21 d incubation, read-out: MIC M. kansasii 6509/96 21 d
[34] = Pseudomonas aeruginosa, CCM1961
[35] = Enterococcus faecalis, J14365/08

Molecule | MIC [2] | MIC KP-E 24 h [3] | MIC KP-E 48 h ([3]; 48 h) | MIC KP 24 h [4] | MIC KP 48 h [4] | MIC [5, 23] | MIC [5, 24] | MIC [5, 25] | MIC [8] | MIC [9, 26] | MIC [9, 27] | MIC ([10]; Escherichia coli, CCM4517) | MIC [11, 28] | MIC [12, 29] | MIC [12, 30] | MIC [13, 31] | MIC [13, 32] | MIC [13, 33] | MIC [16] | MIC [18] | also measured
O=S(=O)(Nc1ncccn1)c1ccc(N=Cc2cc(Cl)cc(Br)c2O)cc1 [Compound 2n, 4-[(3-Bromo-5-chloro-2-hydroxybenzylidene)amino]-N-(pyrimidin-2-yl)benzenesulfonamide] | 250 µM (≈ 117 µg/mL) | 500 µM (≈ 234 µg/mL) | 500 µM (≈ 234 µg/mL) | >500 µM | >500 µM | 125 µM (≈ 58.5 µg/mL) | 125 µM (≈ 58.5 µg/mL) | 250 µM (≈ 117 µg/mL) | 31.2 µM (≈ 14.6 µg/mL) | 250 µM (≈ 117 µg/mL) | 500 µM (≈ 234 µg/mL) | 500 µM (≈ 234 µg/mL) | 31.2 µM (≈ 14.6 µg/mL) | 125 µM (≈ 58.5 µg/mL) | 125 µM (≈ 58.5 µg/mL) | 62.5 µM (≈ 29.2 µg/mL) | 125 µM (≈ 58.5 µg/mL) | 125 µM (≈ 58.5 µg/mL) | 500 µM (≈ 234 µg/mL) | 31.2 µM (≈ 14.6 µg/mL) | MIC ([1]; Trichophyton interdigitale, 445, 72 h, read-out: MIC TI 72 h): 62.5 µM (≈ 29.2 µg/mL); MIC ([1]; Trichophyton interdigitale, 445, 120 h, read-out: MIC TI 120 h): 62.5 µM (≈ 29.2 µg/mL); MIC ([6]; Trichosporon asahii, 1188, 24 h, read-out: MIC TA 24 h): 62.5 µM (≈ 29.2 µg/mL); MIC ([6]; Trichosporon asahii, 1188, 48 h, read-out: MIC TA 48 h): 62.5 µM (≈ 29.2 µg/mL); MIC [7]: 31.2 to 125 µM (≈ 14.6 to 58.5 µg/mL); MIC ([14]; Candida tropicalis, 156, 24 h, read-out: MIC CT 24 h): 62.5 µM (≈ 29.2 µg/mL); MIC ([14]; Candida tropicalis, 156, 48 h, read-out: MIC CT 48 h): 62.5 µM (≈ 29.2 µg/mL); MIC ([15]; E28, 24 h, read-out: MIC CK 24 h): 62.5 µM (≈ 29.2 µg/mL); MIC ([15]; E28, 48 h, read-out: MIC CK 48 h): 62.5 µM (≈ 29.2 µg/mL); MIC ([17]; Staphylococcus aureus, CCM4516, 48 h incubation, read-out: MIC SA 48 h): 31.2 µM (≈ 14.6 µg/mL); MIC [19, 34]: > 500 µM; MIC [20, 35]: > 500 µM
O=[N+]([O-])c1ccc(C=Nc2ccc(S(=O)(=O)Nc3ncccn3)cc2)o1 [Compound 2q, 4-{[(5-Nitrofuran-2-yl)methylene]amino}-N-(pyrimidin-2-yl)benzenesulfonamide] | 500 µM (≈ 187 µg/mL) | 500 µM (≈ 187 µg/mL) | 500 µM (≈ 187 µg/mL) | 500 µM (≈ 187 µg/mL) | 500 µM (≈ 187 µg/mL) | 125 µM (≈ 46.7 µg/mL) | 250 µM (≈ 93.3 µg/mL) | 250 µM (≈ 93.3 µg/mL) | 250 µM (≈ 93.3 µg/mL) | 500 µM (≈ 187 µg/mL) | 500 µM (≈ 187 µg/mL) | > 500 µM | 31.2 µM (≈ 11.7 µg/mL) | 125 µM (≈ 46.7 µg/mL) | 125 µM (≈ 46.7 µg/mL) | 62.5 µM (≈ 23.3 µg/mL) | 62.5 µM (≈ 23.3 µg/mL) | 125 µM (≈ 46.7 µg/mL) | > 500 µM | 250 µM (≈ 93.3 µg/mL) | MIC ([1]; Trichophyton interdigitale, 445, 72 h incubation, read-out: MIC TI 72 h): 250 µM (≈ 93.3 µg/mL); MIC ([1]; Trichophyton interdigitale, 445, 120 h incubation, read-out: MIC TI 120 h): 250 µM (≈ 93.3 µg/mL); MIC [21]: ≥ 62.5 µM; MIC ([6]; Trichosporon asahii, 1188, 48 h incubation, read-out: MIC TA 48 h): 500 µM (≈ 187 µg/mL); MIC ([11]; Staphylococcus epidermidis, H6966/08, incubation time not given, read-out: MIC for S. epidermidis): 31.2 µM (≈ 11.7 µg/mL); MIC ([14]; Candida tropicalis, 156, 48 h incubation, read-out: MIC CT 48 h): 250 µM (≈ 93.3 µg/mL); MIC ([15]; E28, 48 h incubation, read-out: MIC CK 48 h): 250 µM (≈ 93.3 µg/mL); MIC ([17]; Staphylococcus aureus, CCM4516, 24 h, read-out: MIC SA 24 h): 125 µM (≈ 46.7 µg/mL); MIC ([17]; Staphylococcus aureus, CCM4516, 48 h, read-out: MIC SA 48 h): 125 µM (≈ 46.7 µg/mL); MIC [19, 34]: 250 µM (≈ 93.3 µg/mL); MIC [20, 35]: > 500 µM
Bacitracin [reference compound] | – | – | – | – | – | – | – | – | – | – | – | – | – | – | – | – | – | – | – | – | MIC KP 48 h [22]: >500 µM; MIC KP-E 48 h ([3]; 48 h incubation): >500 µM; MIC [10]: >500 µM; MIC ([11]; 48 h incubation, read-out: MIC SE 48 h): 31.25 µM; MIC ([17]; 48 h incubation, read-out: MIC SA 48 h): 15.62 µM; MIC [19]: >500 µM; MIC [20]: 62.5 µM
